Experimental data as given in patent US20230089949A1, “SMALL MOLECULES FOR TREATING AGE-RELATED RETINAL DISEASES” (University of Pittsburgh - Of the Commonwealth System of …, priority 2020, published 2023).

How the values were obtained:
Aged Fischer 344 rats = assay: Histological analysis of retinal outer nuclear layer (ONL) in aged Fischer 344 rats (Example 1); format: in vivo, rat
Method: Aged Fischer 344 rats were treated with oral 8-AG (5 mg/kg/day for 6 weeks; drug delivered via the drinking water), or were a control, and the eyes of the rats were harvested for histological analysis of the retinal outer nuclear layer (ONL) and the results were compared with a corresponding histological analysis of young Fischer 344 rats (FIG. 8). With advance age, there is likely to be a loss of photoreceptors with associated thinning and eventual loss of the overlying ONL (see Schuman et al., Ophthalmology, 116:488-96.e2, 2009)
The orientation of each eye was randomly embedded and sectioned. The fixed eyes were placed in a histology processing cassette for serial alcohol based dehydration. Dehydrated eyes were embedded in paraffin, and retinal cross sections were cut at 6 μm thickness. Retinal cross sections near the optic nerve were stained by hematoxylin and eosin (H&E). Images of H&E-stained retinal cross sections were collected under 4× and 20× objectives. […]
In each retinal cross section image under the 20× objective, the outer nuclear layer (ONL) thickness was measured at 6 locations along the image to calculate the average ONL thickness. […]

aged F344 rat retinae [1] = assay: Retinal morphology (H&E, rhodopsin immunofluorescence) in F344 rat model of age-related photoreceptor degeneration (Example 2); format: in vivo
Method: To test the efficacy of 8-AG in photoreceptor degeneration, 8-AG was administered in two animal models including the F344 rat of age-related photoreceptor degeneration, and the Rho^P23H/+ knock-in mice of retinitis pigmentosa and examine the retinal morphology and function.
(§1) For treatment, female F344 rats were orally administered with 5 mg per kg body weight (bw) of 8-aminoguanine (8-AG) per day in the drinking water starting at 22-24 months of age for 8 weeks. Non-treated age-matched F344 rats and young adult F344 rats at 3-4 months of age were used as controls. RhoP^23H/+ mice were administered with 8-AG for 11 mg per kg bw per day by intraperitoneal injections starting from postnatal day (PND) 15 for five weeks. PBS treated Rho^P23H/+ and WT mice were used as controls.
Eyes were enucleated by a surgical scissor cutting around the eyeball. Each eye was opened with a cut at the cornea side of the limbus, cut horizontally at the edge of the cornea for a circle, corneas removed and lens isolated. Eyecups were incubated in freshly prepared 4% paraformaldehyde for 2 hr. Fixed eyecups were dehydrated sequentially in 5, 10, 20 and 40% sucrose solutions in phosphate buffered saline (PBS) for 30 min each at room temperature. Finally, eyecups were incubated in a mixture of 40% sucrose in PBS and O.C.T. compound (FisherScientific, Houston, Tex. USA) at 3:7 volume ratio overnight at 4° C. before they are embedded in the same mixed solution in an orientation-specific manner and frozen in liquid nitrogen-bathed isobutene. A microtome made twelve-micron retinal cross-sections at −18° C. and those containing the optic nerve head were applied onto a SUPERFROST™ glass slide (FisherScientific, Houston, Tex. USA). These slides were then used for IHC.
After rehydration and permeabilization in PBST for 15 min, retinal sections were incubated in 5% goat serum for 30 min, and then they were incubated with 5% goat serum containing the primary antibodies. […]

Rho^P23H/+ knock-in mice = assay: Retinal morphology and scotopic ERG in Rho P23H/+ knock-in mice of retinitis pigmentosa; format: in vivo, mouse; settings: 11 mg per kg bw per day i.p. for five weeks from PND 15
Method: as §1
(§2) Electroretinogram (ERG): ERG was performed using the Celeris system (Diagnosys, Lowell, Mass., USA). Rats were placed in the dark overnight. During the ERG test, protect the rats from the light from the beginning to the finish of the scotopic test, only use the dim light to do the preparation in the dark room. Pupils were dilated with 1% tropicamide (Akorn, Lake Forest, Ill., USA) and 2.5% phenylephrine (Sigma). Rats were anesthetized with an intraperitoneal injection of ketamine at 80 mg/kg bw and xylazine at 7 mg/kg bw. Eyes were lubricated by a 0.3% hypromellose eye gel (Alcon, Fort Worth, Tex., USA). A heating pad was used to maintain body temperature at 37° C. Scotopic ERG responses of dark-adapted eyes to ten flashes from 0.0001 cd·s/m^2 to 100 cd·s/m^2 were recorded and averaged from three sweeps per flash intensity with inter-sweep intervals of 10 to 30 s. After exposed to 10 cd/m^2 illumination for 10 min, the photopic ERG responses were recorded from the light-adapted eyes in response to flashes from 0.01 cd·s/m^2 to 100 cd·s/m^2 in addition to a 10 cd/m^2 background light. P-values were calculated by a two-way ANOVA to determine the statistical significance between the response amplitudes in the 8-AG treated group and untreated group. Factor 1, treatment condition; and factor 2, flash intensity.
Retinal histology and H&E staining: To examine the structure of the aging rats' retinas treated with 8-AG, the rats were euthanized, their eyes removed, and fixed in 4% paraformaldehyde and 1% glutaraldehyde before paraffin sectioning. […]

aged F344 rat retinae [2] = assay: Immunoblots of protein markers of mitochondria function, oxidative stress and apoptosis in aged F344 rat retinae; format: in vivo
Method: A range of protein markers of mitochondria function and apoptosis was probed in the retinae of young, aged and 8-AG treated aged F344 rat retinae, as well as the mitochondrial superoxide dismutase 2 (SOD2), an enzyme protecting tissue from damage by ROS, using immunoblots. […] The fact that chronic 8-AG […] retinal levels of SOD2 is consistent with reduced retinal oxidative stress in 8-AG-treated aged rats.
as §1
Western Immunoblotting: The freshly isolated retinae were homogenized using Lysing Matrix D in a FASTPREP-24™ instrument (MP Biomedicals) in HBSS buffer (5 mM KCl, 0.3 mM KH2PO4, 138 mM NaCl, 4 mM NaHCO3, 0.3 mM Na2HPO4, 5.6 mM glucose, and 10 mM HEPES, pH 7.4) containing complete protease inhibitor cocktail (1 tablet/10 ml, Roche) and phosphatase inhibitor cocktail (MilliporeSigma, 1:100). After centrifugation (16200 g, 15 minutes at 4° C.), the membrane protein fraction was prepared by suspending the membrane pellets in lysis buffer containing 0.3M NaCl, 50 mM Tris-HCl (pH 7.6), and 0.5% Triton X-100, as well as the same concentration of protease inhibitors as above. The suspensions were incubated on ice and centrifuged (16200 g, 15 minutes at 4° C.). The protein concentrations of the combined supernatants were determined using the Pierce BCA protein assay (Thermo Fisher Scientific). Two μg of unheated total protein was loaded on a 4%-15% TGX Stain-Free SDS-PAGE gel (Bio-Rad). As a reliable loading control, total protein measurement per sample was determined using Bio-Rad Stain Free SDS-PAGE gel technology. UV-activated protein fluorescence was imaged on a ChemiDoc MP (Bio-Rad). The gel was electrotransferred to polyvinylidene fluoride membrane and immunoblotted with 1D4 anti-rhodopsin antibody (5 μg/mL). After washing in TBS-T, the membranes were incubated with secondary antibody, sheep anti-mouse HRP (Southern Biotech), developed using WESTERNBRIGHT® Quantum (Advansta), and imaged on a ChemiDoc MP (BioRad). The volume (intensity) of each protein species was determined and normalized to total protein using Image Lab software (Bio-Rad).

aged F344 rat retinae [3] = assay: Immunofluorescence of GFAP and CD68 in aged F344 rat retinae; format: in vivo; settings: 5 mg/kg bw per day in drinking water for eight weeks from 22 months of age
Method: Glial cells are activated upon photoreceptor degeneration, and retinal immune response is thought to contribute to photoreceptor degeneration as the disease progresses. Activated macrophages were reported to not only scavenge dead cells, but also can phagocytose living photoreceptors (McMenamin et al. Prog. Retin. Eye Res. 70, 85-98, doi:10.1016/j.preteyeres. 2018.12.002 (2019)).
as §1
Eyes were enucleated by a surgical scissor cutting around the eyeball. Each eye was opened with a cut at the cornea side of the limbus, cut horizontally at the edge of the cornea for a circle, corneas removed and lens isolated. Eyecups were incubated in freshly prepared 4% paraformaldehyde for 2 hr. Fixed eyecups were dehydrated sequentially in 5, 10, 20 and 40% sucrose solutions in phosphate buffered saline (PBS) for 30 min each at room temperature. […]

aged F344 rat retinae [4] = assay: SD-OCT of ONL thickness in aged F344 rats, 0 vs 4 wks; format: in vivo
Method: (§3) The potent efficacy of 8-AG in preserving retinal morphology and function of the aged F344 rats and Rho^P23H/+ mice were shown in FIGS. 11A-11D and […].
Optical coherence tomography (OCT): To assess the 8-AG treatment on old F344 rats, ultrahigh-resolution SD-OCT (Bioptigen, Morrisville, N.C.) was performed for in vivo imaging of rats retinas. Pupils were dilated with 1% tropicamide (Akorn, Lake Forest, Ill., USA) and 2.5% phenylephrine (Sigma). Rats were anesthetized with an intraperitoneal injection of ketamine at 80 mg/kg bw and xylazine at 7 mg/kg bw. Eyes were lubricated by a 0.3% hypromellose eye gel (Alcon, Fort Worth, Tex., USA). A heating pad was used to maintain body temperature; the A scan/B scan ratio was set at 1200 lines. Five frames of OCT images scanned at 0° were acquired in the B-mode, averaged, and saved as pdf files. To measure changes to photoreceptors in the retinas assess the effect of 8-AG on retinal protection, the thickness of the ONL was measured along with the scanned SD-OCT image at 6 points from the temporal to nasal end of the retina. A graph of ONL thicknesses was plotted to obtain the means and standard error (SE) of the samples.

aged F344 rat retinae [5] = assay: Electroretinogram (ERG) of aged F344 rats, 0 vs 4 wks; format: in vivo; settings: 5 mg/kg bw per day in drinking water; 4 wks vs 0 wk
Method: as §3, §2

Dahl salt-sensitive rats [6] = assay: Chronic effects of 8-AG in Dahl salt-sensitive rats on high salt diet (MRI, organ histology); format: in vivo, rat; settings: high salt diet with 8AG for 40 days; independent veterinary pathology lab
Excerpt: (§4) While the genetic loss of PNPase activity is toxic and results in a compromised immune system, partial inhibition of PNPase by pharmacological administration is safe. The chronic effects of 8-AG have been examined in Dahl salt-sensitive rats, which is a model of genetic hypertension that is exacerbated by providing a high salt diet. […] Next, organs from these animals were examined histologically by an independent veterinary pathology lab.

animals = assay: Observed toxicity in the animal experiments that were performed; format: in vivo
Excerpt: as §4

Dahl salt-sensitive rats [7] = settings: high salt diet with 8AG for 40 days; vs untreated high-salt control; cited from earlier work
[8] = 5 mg per kg bw per day in drinking water for 8 weeks from 22 months of age, central, equatorial and peripheral sites, vs untreated age-matched group
[9] = 5 mg/kg bw per day in drinking water from 24 months, 4 wks compared to before treatment

Nc1nc2[nH]c(N)nc2c(=O)[nH]1 [8-AG, 8-aminoguanine]
ONL preservation in retinal edges (Aged Fischer 344 rats; oral 8-AG 5 mg/kg/day for 6 weeks via drinking water, edge of old retinae, retinal edges with preserved ONL): 7 out of 8 | ONL thickness, effect of treatment (2-way ANOVA) (Aged Fischer 344 rats; oral 8-AG 5 mg/kg/day for 6 weeks, treated vs untreated old rats, independent of retinal location): significant | ONL thickness (aged F344 rat retinae [1]; [8]): distinctively increased | OS/IS thickness (aged F344 rat retinae [1]; [8]): distinctively increased | Rhodopsin levels (immunofluorescence) (aged F344 rat retinae [1]; 5 mg per kg bw per day in drinking water for 8 weeks, vs untreated aged retinae): increased | ONL layer thickness (Rho^P23H/+ knock-in mice; H&E): thicker | scotopic ERG a-wave response (Rho^P23H/+ knock-in mice; vs vehicle control group): significantly higher | scotopic ERG b-wave response (Rho^P23H/+ knock-in mice; vs vehicle control group): significantly higher | retinal levels of SOD2 (aged F344 rat retinae [2]; chronic oral 8-AG 5 mg/kg for 8 wks, immunoblot, aged rats): decreased | Rhodopsin levels (immunoblot) (aged F344 rat retinae [2]; oral 8-AG 5 mg/kg for 8 wks, aged F344 retina): restored | retinal MFN2 levels (aged F344 rat retinae [2]; oral 8-AG 5 mg/kg for 8 wks, immunoblot): further increased | cleaved CASP3 (aged F344 rat retinae [2]; oral 8-AG 5 mg/kg for 8 wks, immunoblot, aged retinae): reduced | GFAP staining (aged F344 rat retinae [3]): did not affect | number of CD68+ cells (aged F344 rat retinae [3]): significantly reduced | ONL thickness, nasal side (SD-OCT) (aged F344 rat retinae [4]; [9]): slight increase | ONL thickness, temporal side (SD-OCT) (aged F344 rat retinae [4]; [9]): no change | ONL at sites where it had disappeared before treatment (SD-OCT) (aged F344 rat retinae [4]; single exemplary retina, 4 wks of treatment): reappeared | photopic b wave responses (aged F344 rat retinae [5]): did not affect | scotopic a-wave (aged F344 rat retinae [5]): significantly increased | scotopic b-wave (aged F344 rat retinae [5]): significantly increased | microscopic alterations in heart, kidney, liver, aorta, adrenal gland (histology) (Dahl salt-sensitive rats [6]): No treatment-related microscopic alterations | toxicity (animals): no observed toxicity | strokes in the cerebral cortex and subcortical areas (MRI) (Dahl salt-sensitive rats [7]): protected from strokes
